Consider ten compounds from PubChem BioAssay AID330 (DTP/NCI, 2004).

The assay relates to P388 leukemia ip, CD2F1 mice, survival T/C. The assay is described as follows: NCI In Vivo Anticancer Drug Screen. Data for tumor model P388 Leukemia (intraperitoneal) in CD2F1 (CDF1) mice. Conditions: endpoint: median survival time, higher = longer survival. In short, it runs like this: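 Mice carrying the transplanted tumor received test compound or vehicle. Survival was recorded in each group, and the value is the treated-group measurement divided by that of the vehicle-treated control group.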

Setting [1] is: dose: 50.0 mg/kg/injection, schedule: Q01DX009 (ip), vehicle: saline with Tween-80.
The mark [2] stands for this setting: dose: 12.5 mg/kg/injection, schedule: Q01DX005 (ip), vehicle: Klucel (hydroxypropylcellulose) (HPC).
Where [3] appears, read: dose: 25.0 mg/kg/injection, schedule: Q01DX005 (ip), vehicle: Klucel (hydroxypropylcellulose) (HPC).

Several values for one entry are separate records, joined by “and”; a condition that tells them apart may be missing. Equal entries are not always repeated. Toxic doses and inconclusive results are not listed.

In the case of `Cn1c(Br)c(/C=N/NC(N)=S)c2ccccc21`, the T/C is, setting by setting: (dose: 100.0 mg/kg/injection, schedule: Q01DX001 (ip), vehicle: Klucel (hydroxypropylcellulose) (HPC)) 108 % of control; (dose: 200.0 mg/kg/injection, schedule: Q01DX001 (ip), vehicle: Klucel (hydroxypropylcellulose) (HPC)) 100 % of control; (dose: 400.0 mg/kg/injection, schedule: Q01DX001 (ip), vehicle: Klucel (hydroxypropylcellulose) (HPC)) 102 % of control.
With `O=S1(=O)Oc2c(Cl)cc(Cl)cc2S(=O)(=O)Oc2c(Cl)cc(Cl)cc21`, the T/C runs as follows: (dose: 60.0 mg/kg/injection, schedule: Q01DX005 (ip), vehicle: saline with Tween-80) 93 % of control; (dose: 120.0 mg/kg/injection, schedule: Q01DX005 (ip), vehicle: saline with Tween-80) 94 % of control; (dose: 240.0 mg/kg/injection, schedule: Q01DX005 (ip), vehicle: saline with Tween-80) 86 % of control.
Turning to `COC1CC(C)C(OC)C2=CC(=O)C=C(NC(=O)/C(C)=C/C=C\C(C)C(OC(N)=O)/C(C)=C\C(C)C1OC)C2=O` (stereo not given), the T/C reads like this: (dose: 5.0 mg/kg/injection, schedule: Q01DX009 (ip), vehicle: saline + alcohol) 121 % of control; (dose: 10.0 mg/kg/injection, schedule: Q01DX009 (ip), vehicle: saline + alcohol) 123 % of control; (dose: 20.0 mg/kg/injection, schedule: Q01DX009 (ip), vehicle: saline + alcohol) 86 % of control.
As for `O=C(O)CC(O)CCCCCO` (stereo not given), the T/C is, setting by setting: under setting [1], 110 % of control; (dose: 100.0 mg/kg/injection, schedule: Q01DX009 (ip), vehicle: saline with Tween-80) 110 % of control; (dose: 100.0 mg/kg/injection, schedule: Q04DX003 (ip), vehicle: saline) 106 % of control; (dose: 200.0 mg/kg/injection, schedule: Q01DX009 (ip), vehicle: saline with Tween-80) 100 % of control; (dose: 200.0 mg/kg/injection, schedule: Q04DX003 (ip), vehicle: saline) 113 % of control; (dose: 400.0 mg/kg/injection, schedule: Q04DX003 (ip), vehicle: saline) 100 % of control.
For the compound `COc1cccc2c1C(=O)c1c(O)c3c(c(O)c1C2=O)C[C@@](O)(C(=O)CO)C[C@@H]3OC1CC(NC=O)C(O)C(C)O1` (stereo not given in full), the T/C was 95 % of control (dose: 1.56 mg/kg/injection, schedule: Q01DX009 (ip), vehicle: Klucel (hydroxypropylcellulose) (HPC)); 163 % of control (dose: 7.4 mg/kg/injection, schedule: Q01DX009 (ip), vehicle: other); 157 % of control (dose: 11.0 mg/kg/injection, schedule: Q01DX009 (ip), vehicle: other); 163 % of control (dose: 16.5 mg/kg/injection, schedule: Q01DX009 (ip), vehicle: other); 192 % of control (dose: 25.0 mg/kg/injection, schedule: Q01DX009 (ip), vehicle: other); 201 % of control (dose: 37.5 mg/kg/injection, schedule: Q01DX009 (ip), vehicle: other). Further, where the note is “dose: 50.0 mg/kg/injection, schedule: Q01DX009 (ip), vehicle: Klucel (hydroxypropylcellulose) (HPC)”, the T/C was 121 % of control.
In the case of `CNC(=S)OCCn1c([N+](=O)[O-])cnc1C`, the T/C was 92 % of control (dose: 100.0 mg/kg/injection, schedule: Q01DX001 (ip), vehicle: saline with Tween-80); 106 % of control (dose: 200.0 mg/kg/injection, schedule: Q01DX001 (ip), vehicle: saline with Tween-80); 105 % of control (dose: 400.0 mg/kg/injection, schedule: Q01DX001 (ip), vehicle: saline with Tween-80).
Take `COc1cc(CC2C(=O)OCC2Cc2ccc3c(c2)OCO3)cc(OC)c1OC` (stereo not given): the T/C is, setting by setting: (dose: 12.5 mg/kg/injection, schedule: Q01DX009 (ip), vehicle: saline with Tween-80) 98 % of control; (dose: 25.0 mg/kg/injection, schedule: Q01DX009 (ip), vehicle: saline with Tween-80) 104 % of control; under setting [1], 100 % of control; (dose: 50.0 mg/kg/injection, schedule: Q04DX002 (ip), vehicle: acetone) 94 % of control; (dose: 50.0 mg/kg/injection, schedule: Q04DX002 (ip), vehicle: saline with Tween-80) 103 % of control; (dose: 100.0 mg/kg/injection, schedule: Q04DX002 (ip), vehicle: acetone) 100 % of control. Further, the T/C is, setting by setting: (dose: 100.0 mg/kg/injection, schedule: Q04DX002 (ip), vehicle: saline with Tween-80) 100 % of control; (dose: 200.0 mg/kg/injection, schedule: Q04DX002 (ip), vehicle: acetone) 100 % of control; (dose: 200.0 mg/kg/injection, schedule: Q04DX002 (ip), vehicle: saline with Tween-80) 100 % of control.
For the compound `COc1ccc(C(=O)O[C@@H]2CCN3CC[C@H](C)[C@H]23)cc1`, the T/C was 102 % of control under setting [2]; 102 % of control under setting [3]; 104 % of control (dose: 50.0 mg/kg/injection, schedule: Q01DX005 (ip), vehicle: Klucel (hydroxypropylcellulose) (HPC)).
Take `CCN(CC)CCCC(C)Nc1c2ccc(Cl)cc2nc2ccc(OC)cc12` (stereo not given): the T/C (dose: 3.0 mg/kg/injection, schedule: Q03HX024 (ip), vehicle: saline with Tween-80) was 108 % of control; the T/C (dose: 4.0 mg/kg/injection, schedule: Q01DX009 (ip), vehicle: suspension in saline) is 104 % of control; the T/C (dose: 4.0 mg/kg/injection, schedule: Q#A X018 (ip), vehicle: saline with Tween-80) was 97 % of control; the T/C (dose: 6.0 mg/kg/injection, schedule: Q03HX024 (ip), vehicle: saline with Tween-80) was 93 % of control; the T/C (dose: 8.0 mg/kg/injection, schedule: Q01DX009 (ip), vehicle: saline with Tween-80) was 104 % of control and 105 % of control; the T/C (dose: 8.0 mg/kg/injection, schedule: Q01DX009 (ip), vehicle: suspension in saline) is 110 % of control. Moreover, the T/C was 87 % of control (dose: 8.0 mg/kg/injection, schedule: Q#A X018 (ip), vehicle: saline with Tween-80); 106 % of control and 120 % of control (dose: 16.0 mg/kg/injection, schedule: Q01DX009 (ip), vehicle: saline with Tween-80); 108 % of control (dose: 16.0 mg/kg/injection, schedule: Q01DX009 (ip), vehicle: suspension in saline); 91 % of control (dose: 16.0 mg/kg/injection, schedule: Q#A X018 (ip), vehicle: saline with Tween-80); 100 % of control (dose: 20.0 mg/kg/injection, schedule: Q04DX003 (ip), vehicle: saline with Tween-80); 108 % of control (dose: 24.0 mg/kg/injection, schedule: Q03HX024 (ip), vehicle: saline with Tween-80). In addition, the T/C is, setting by setting: (dose: 24.0 mg/kg/injection, schedule: Q04DX003 (ip), vehicle: saline with Tween-80) 97 % of control; (dose: 32.0 mg/kg/injection, schedule: Q01DX009 (ip), vehicle: saline with Tween-80) 117 % of control; (dose: 32.0 mg/kg/injection, schedule: Q01DX009 (ip), vehicle: suspension in saline) 113 % of control; (dose: 32.0 mg/kg/injection, schedule: Q#A X018 (ip), vehicle: saline with Tween-80) 104 % of control; (dose: 40.0 mg/kg/injection, schedule: Q04DX003 (ip), vehicle: saline with Tween-80) 100 % of control; (dose: 48.0 mg/kg/injection, schedule: Q04DX003 (ip), vehicle: saline with Tween-80) 97 % of control. The T/C is, setting by setting: (dose: 64.0 mg/kg/injection, schedule: Q01DX009 (ip), vehicle: suspension in saline) 113 % of control; (dose: 71.0 mg/kg/injection, schedule: Q01DX001 (ip), vehicle: saline with Tween-80) 106 % of control; (dose: 80.0 mg/kg/injection, schedule: Q04DX003 (ip), vehicle: saline with Tween-80) 108 % of control; (dose: 96.0 mg/kg/injection, schedule: Q04DX003 (ip), vehicle: saline with Tween-80) 106 % of control; (dose: 128.0 mg/kg/injection, schedule: Q01DX009 (ip), vehicle: saline with Tween-80) 98 % of control; (dose: 128.0 mg/kg/injection, schedule: Q01DX009 (ip), vehicle: suspension in saline) 91 % of control. In addition, where the note is “dose: 143.0 mg/kg/injection, schedule: Q01DX001 (ip), vehicle: saline with Tween-80”, the T/C was 113 % of control.
Regarding `C=C(Cl)C(=NC(C)(C)C)Nc1ccccc1C`, the T/C was 100 % of control (dose: 1.56 mg/kg/injection, schedule: Q01DX005 (ip), vehicle: saline); 103 % of control (dose: 3.12 mg/kg/injection, schedule: Q01DX005 (ip), vehicle: Klucel (hydroxypropylcellulose) (HPC)); 102 % of control (dose: 3.12 mg/kg/injection, schedule: Q01DX005 (ip), vehicle: saline); 107 % of control and 117 % of control (dose: 6.25 mg/kg/injection, schedule: Q01DX005 (ip), vehicle: Klucel (hydroxypropylcellulose) (HPC)); 109 % of control and 118 % of control (dose: 6.25 mg/kg/injection, schedule: Q01DX005 (ip), vehicle: saline); 117 % of control under setting [2]. Besides, the T/C (dose: 12.5 mg/kg/injection, schedule: Q01DX005 (ip), vehicle: saline) is 108 % of control and the T/C under setting [3] is 121 % of control.
